Our source for the relative solubility, inhibition and IC50 values is the COVID Moonshot data (paper PMC11187573), “Identification of SARS-CoV-2 Mpro inhibitors through deep reinforcement learning for de novo drug design and computational chemistry approaches” (RSC Medicinal Chemistry, 2024).

For data set [1], the target named is SARS-CoV-2 Main Protease (SARS-CoV-2) (UniProt P0DTD1).
For data set [2] the target is unchanged. This is another data set of the same source.

`O=C(c1cc(=O)[nH]c2ccccc12)N1CCN(c2ccccc2)CC1` showed a relative solubility at 20 uM of 1 and a relative solubility at 100 uM of 1. Also, in data set [1] (50.0 µM), the inhibition (in general, the change of the read-out against control, counted positive when it falls) came to 54.1%. Moreover, in data set [2], the IC50 – broadly, the concentration at which inhibition is half-maximal – was 10.4 µM. The inhibition in data set [2] (20.0 µM) was found to be 66.6%. In data set [2] (50.0 µM), the inhibition was determined as 78.8%.
`C=CC(=O)N(c1ccc(SC)cc1)C(C(=O)Nc1ccc(OC)cc1C)c1cccnc1` (stereo not drawn): the relative solubility at 20 uM was found to be 0.95 and the relative solubility at 100 uM was 0.84. In addition, the inhibition in data set [1] (20.0 µM) stood at 8.27%. Besides, in data set [1] (50.0 µM), the inhibition is 22.2%. In addition, the inhibition in data set [2] (20.0 µM) is 0%.
The compound `CS(=O)(=O)Nc1cccc(C(=O)Oc2cccc(N3CCCC3=O)c2)c1` showed a relative solubility at 20 uM of 0.99 and a relative solubility at 100 uM of 0.86. Further, the inhibition in data set [1] (50.0 µM) is 35.7%. In data set [2] (20.0 µM), the inhibition came out at 0%. Also, the inhibition in data set [2] (50.0 µM) was 11.2%.
As to `C=CC(=O)N(c1ccc(CC)c(I)c1)C(C(=O)NC(C)(C)C)c1cccnc1` (stereo not drawn), the relative solubility at 20 uM was determined as 0.95 and the relative solubility at 100 uM stood at 0.93. The inhibition in data set [1] (20.0 µM) worked out at 15.2%. In data set [1] (50.0 µM), the inhibition came to 20.7%. The inhibition in data set [2] (50.0 µM) is 9.38%.
In turn, `Cc1ccc(S(=O)(=O)NC2CCN(C(=O)CCl)CC2)cc1` gave a relative solubility at 20 uM of 1 and a relative solubility at 100 uM of 1.01. In addition, the inhibition in data set [1] (20.0 µM) came to 25.1%. In addition, in data set [1] (50.0 µM), the inhibition is 59.3%. In addition, the IC50 in data set [2] was determined as 18.5 µM. For the same compound, in data set [2] (20.0 µM), the inhibition was 54.9%.
Compound `Cc1cccc(C)c1OCC(=O)N[C@@H](Cc1ccccc1)[C@@H](O)C[C@H](Cc1ccccc1)NC(=O)[C@H](C(C)C)N1CCCNC1=O` (stereo in doubt) came in with a relative solubility at 20 uM of 0.83 and a relative solubility at 100 uM of 0.53. Moreover, the inhibition in data set [1] (20.0 µM) was 7.22%. In data set [1] (50.0 µM), the inhibition came to 13%. Besides, the inhibition in data set [2] (20.0 µM) came to 0%.
`O=C(CCc1cnn[nH]1)NC(Cn1cccn1)c1ccccc1` (stereo not drawn) returned a relative solubility at 20 uM of 1 and a relative solubility at 100 uM of 1. Moreover, the inhibition in data set [1] (20.0 µM) was -1.52%. Further, in data set [1] (50.0 µM), the inhibition was -1.11%. In addition, in data set [2] (20.0 µM), the inhibition came to 0%. Besides, in data set [2] (50.0 µM), the inhibition worked out at 0%.
For `C=CC(=O)N(c1ccc(C(C)(C)C)cc1)C(C(=O)NCc1cccnc1)c1cccnc1` (stereo not drawn), the relative solubility at 20 uM was 1 and the relative solubility at 100 uM is 0.96. The inhibition in data set [1] (20.0 µM) turned out to be 41.2%. Besides, in data set [1] (50.0 µM), the inhibition was 59.3%. In addition, the inhibition in data set [2] (20.0 µM) came out at 18.2%. The inhibition in data set [2] (50.0 µM) worked out at 61.3%.
Take `Cc1ccnn1CC(=O)NCC(NC(=O)C(C)C#N)c1ccccc1` (stereo not drawn): the relative solubility at 20 uM was determined as 0.99 and the relative solubility at 100 uM amounted to 1. The inhibition in data set [1] (20.0 µM) is -13.2%. For the same compound, the inhibition in data set [1] (50.0 µM) is -6.86%. In addition, the inhibition in data set [2] (50.0 µM) is -26.1%.
The compound `O=C(NCCN1CCN(C(=O)CCl)CC1)c1ccccc1` yielded a relative solubility at 20 uM of 1 and a relative solubility at 100 uM of 1.01. Also, the inhibition in data set [1] (20.0 µM) turned out to be 0.205%. The inhibition in data set [1] (50.0 µM) is 18.1%. Also, the inhibition in data set [2] (20.0 µM) turned out to be 0.871%.
`C=CC(=O)N(c1ccc(C(C)(C)C)cc1)C(C(=O)NCCC(=O)OCC)c1cccnc1` (stereo not drawn) showed a relative solubility at 20 uM of 0.99 and a relative solubility at 100 uM of 0.97. In data set [1] (20.0 µM), the inhibition amounted to 27.8%. For the same compound, the inhibition in data set [1] (50.0 µM) stood at 46.3%. Moreover, in data set [2] (20.0 µM), the inhibition was found to be 12.3%. For the same compound, the inhibition in data set [2] (50.0 µM) worked out at 43.7%.
The compound `CCO[C@@H]1C[C@H]1C(=O)Nc1cnccc1C` (stereo in doubt) returned a relative solubility at 20 uM of 1 and a relative solubility at 100 uM of 1. Moreover, in data set [1] (20.0 µM), the inhibition was -4.13%. For the same compound, in data set [1] (50.0 µM), the inhibition was -3.45%. Further, in data set [2] (50.0 µM), the inhibition is 0%.
On to `N#Cc1cccc(NC(=O)Nc2c[nH]c3ncccc23)c1`, for which the relative solubility at 20 uM turned out to be 1 and the relative solubility at 100 uM came to 0.91. Further, in data set [1] (50.0 µM), the inhibition came to 47.3%. The inhibition in data set [2] (20.0 µM) was 0%. Moreover, in data set [2] (50.0 µM), the inhibition came out at 19.9%.
The compound `Cc1[nH]c2ccccc2c1/C=N/N(C)C(=O)c1ccc2c(c1)OCO2` had a relative solubility at 20 uM of 0.78 and a relative solubility at 100 uM of 0.77. Moreover, the inhibition in data set [1] (20.0 µM) was found to be 2.2%. Besides, the inhibition in data set [1] (50.0 µM) is -13.4%. The inhibition in data set [2] (50.0 µM) was -6.66%.
For the compound `CNC(=O)OC1CCN(C(=O)c2ccncc2)CC1`, the relative solubility at 20 uM was 1 and the relative solubility at 100 uM is 1. Moreover, the inhibition in data set [1] (50.0 µM) is -25.3%. For the same compound, the inhibition in data set [2] (20.0 µM) was 0.65%. Further, the inhibition in data set [2] (50.0 µM) amounted to 2.15%.
In turn, `Cc1ccncc1NC(=O)C(C)c1cccc(Cl)c1` (stereo not drawn) registered a relative solubility at 20 uM of 1 and a relative solubility at 100 uM of 1. Moreover, the inhibition in data set [1] (20.0 µM) came out at 58%. Besides, the inhibition in data set [1] (50.0 µM) came out at 78.7%. In data set [2], this compound yielded an IC50 of 13 µM. Besides, the inhibition in data set [2] (20.0 µM) worked out at 20.4%.
`Cc1cccc(CC(=O)Nc2cccnc2C#N)c1` registered a relative solubility at 20 uM of 1 and a relative solubility at 100 uM of 1. Also, the inhibition in data set [1] (20.0 µM) came out at 8.4%. For the same compound, in data set [1] (50.0 µM), the inhibition was -5.94%. Also, in data set [2] (20.0 µM), the inhibition came out at 0%.
The compound `CC(Cl)C(=O)N1CCC(C(=O)N2CCCCC2)CC1` (stereo not drawn) returned a relative solubility at 20 uM of 0.99 and a relative solubility at 100 uM of 1. Besides, the inhibition in data set [1] (20.0 µM) is -11.9%. Moreover, the inhibition in data set [1] (50.0 µM) was -27%. For the same compound, the inhibition in data set [2] (20.0 µM) was 0%. For the same compound, the inhibition in data set [2] (50.0 µM) was determined as 0%.
For the compound `O=C(CCl)N1CCN(C2(c3cccc(Cl)c3)CC2)CC1`, the relative solubility at 20 uM came out at 1.01 and the relative solubility at 100 uM turned out to be 0.99. Also, in data set [1], the IC50 amounted to 52.3 µM. Moreover, the inhibition in data set [1] (20.0 µM) turned out to be 55.7%. Moreover, in data set [1] (50.0 µM), the inhibition was 80.8%. For the same compound, the inhibition in data set [2] (50.0 µM) was 41.2%.
As for `COC(=O)C(Cc1ccccc1)C(C)NC(=O)C(C)n1ccnc1` (stereo not drawn), the relative solubility at 20 uM was found to be 1 and the relative solubility at 100 uM was 1. For the same compound, in data set [1] (50.0 µM), the inhibition was 11.9%. Further, the inhibition in data set [2] (20.0 µM) was 0%. The inhibition in data set [2] (50.0 µM) stood at 0%.
`C=CC(=O)N(c1ccc(C(C)C)nc1)C(C(=O)Nc1c(C)cccc1CC)c1cccnc1` (stereo not drawn) came in with a relative solubility at 20 uM of 1 and a relative solubility at 100 uM of 0.95. The inhibition in data set [1] (20.0 µM) amounted to 5.61%. Besides, in data set [1] (50.0 µM), the inhibition was 12.5%. For the same compound, the inhibition in data set [2] (20.0 µM) was determined as 0%.
In the case of `C=CC(=O)N(c1ccc(C(C)OC)cc1)C(C(=O)NC(C)(C)C)c1cccnc1` (stereo not drawn), the relative solubility at 20 uM is 0.98 and the relative solubility at 100 uM is 0.86. Besides, in data set [1] (20.0 µM), the inhibition was found to be 7.07%. Also, the inhibition in data set [1] (50.0 µM) stood at 15.9%. In addition, in data set [2] (20.0 µM), the inhibition was 0%.
Consider `C=CC(=O)N(c1ccc(C(C)(C)CC)cc1)C(C(=O)Nc1ccc(Br)cc1)c1cccnc1` (stereo not drawn), for which the relative solubility at 20 uM was determined as 0.91 and the relative solubility at 100 uM came to 0.66. Besides, the inhibition in data set [1] (20.0 µM) was found to be 8.32%. Further, the inhibition in data set [1] (50.0 µM) was 18.4%. Also, the inhibition in data set [2] (20.0 µM) was found to be 0%.
Take `O=C(NCCNc1ccccc1)c1cc(=O)[nH]c2ccccc12`: the relative solubility at 20 uM is 1 and the relative solubility at 100 uM was 0.98. Further, the inhibition in data set [1] (20.0 µM) is 32%. In data set [1] (50.0 µM), the inhibition was 61.6%. In addition, the inhibition in data set [2] (50.0 µM) was determined as 35.4%.
Regarding `C=C(CN(C)C)C(=O)N1Cc2ccccc2C(c2ccccc2)C1` (stereo not drawn), the relative solubility at 20 uM turned out to be 1 and the relative solubility at 100 uM was determined as 0.97. Further, the inhibition in data set [1] (20.0 µM) came to 0.735%. The inhibition in data set [1] (50.0 µM) was 10.3%. Also, the inhibition in data set [2] (20.0 µM) was 0%.
Take `O=C(c1cc(=O)[nH]c2ccc(F)cc12)N1CCN(S(=O)(=O)c2ccccc2Cl)CC1`: the relative solubility at 20 uM was 0.98 and the relative solubility at 100 uM was determined as 0.93. Further, in data set [1] (20.0 µM), the inhibition is 19.5%. Moreover, in data set [1] (50.0 µM), the inhibition stood at 35.1%. Besides, the inhibition in data set [2] (50.0 µM) came out at 39.8%.
On to `Nc1ncncc1CNC(=O)Nc1ccccc1OCCn1ccnc1`, for which the relative solubility at 20 uM stood at 1 and the relative solubility at 100 uM was 1. For the same compound, the inhibition in data set [1] (50.0 µM) turned out to be 15.8%. The inhibition in data set [2] (20.0 µM) came out at 1.47%. The inhibition in data set [2] (50.0 µM) came out at 9.19%.
Regarding `O=C(Cc1cccc(Cl)c1)Nc1cnccc1O`, the relative solubility at 20 uM came out at 1 and the relative solubility at 100 uM worked out at 1. Also, the inhibition in data set [1] (20.0 µM) worked out at 0.0135%. Moreover, the inhibition in data set [1] (50.0 µM) is -2.06%. The inhibition in data set [2] (50.0 µM) came out at 0%.
